Test results as given in the supplement of paper PMC8967900.

system: KASUMI-2; assay: selective drug sensitivity score (sDSS, relative to normal bone marrow) (sDSS (score)); higher = more potent and effective on the cell line relative to normal bone marrow cells; conditions: 72 h
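Also: ALL cell lines in 384-well plates, five doses spanning 10,000-fold, each plate scaled between vehicle and 100 µmol/L benzalkonium chloride controls, sDSS an adapted area-under-curve metric.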

Compound | selective drug sensitivity score
COc1cc(CCc2cc(NC(=O)c3ccc(N4CC(C)NC(C)C4)cc3)n[nH]2)cc(OC)c1 (stereo not given) [AZD4547] (top concentration 1000 nM) | 0.26
CN(C)C(=O)c1ccc(S(=O)(=O)c2ccc(NC(=O)[C@@](C)(O)C(F)(F)F)c(Cl)c2)cc1 [AZD7545] (top concentration 10000 nM) | 5.3
COc1cc(C)c(/C=C/C(C)=C/C=C/C(C)=C/C(=O)O)c(C)c1C [Acitretin] (top concentration 10000 nM) | -1.6
CCC1(c2ccc(N)cc2)CCC(=O)NC1=O (stereo not given) [Aminoglutethimide] (top concentration 10000 nM) | 0
CNC(=O)c1ccc(N2C(=S)N(c3cnc(C#N)c(C(F)(F)F)c3)C(=O)C23CCC3)cc1F [Apalutamide] (top concentration 10000 nM) | 0
N#CC1(c2ccc(NC(=O)c3cccnc3NCc3ccncc3)cc2)CCCC1 [Apatinib] (top concentration 10000 nM) | 2.1
Cc1nc2cccc(N)c2c(=O)n1C1CCC(=O)NC1=O (stereo not given) [Avadomide (CC122)] (top concentration 10000 nM) | 0
Nc1nc(Nc2ccc3c(c2)CC[C@@H](N2CCCC2)CC3)nn1-c1cc2c(nn1)-c1ccccc1CCC2 [BGB324] (top concentration 10000 nM) | -1.58
CC1(C)C(C(=O)Nc2ccc(S(=O)(=O)c3ccc(NC(=O)C4C(C)(C)C4(C)C)cc3)cc2)C1(C)C [BRD7116] (top concentration 10000 nM) | -0.24

system: LC4-1; assay: as above; conditions: 72 h

Compound | selective drug sensitivity score
CNC(=O)c1ccc(C)c(-n2c(C)cc(OCc3ccc(F)cc3F)c(Br)c2=O)c1 (top concentration 1000 nM) | 0
CONC(=O)c1ccccc1Nc1cc(Nc2cc(C)nn2C(C)C)ncc1Cl (top concentration 1000 nM) | 3.36
CCOc1ccn(-c2ccc(F)cc2)c(=O)c1C(=O)Nc1ccc(Oc2ccnc(N)c2Cl)c(F)c1 (top concentration 2500 nM) | 0
CC[C@@H]1[C@H](F)C(=O)N[C@@H]1COc1nccc2cc(C(N)=O)c(OC)cc12 (top concentration 10000 nM) | 0.08
C[C@H]1C[C@@H](n2c(Nc3ccc(OC(F)(F)F)cc3)nc3cc(CCC(=O)O)ccc32)CC(C)(C)C1 (top concentration 10000 nM) | 0.76
O=C(NCc1ccncc1)C12CC3CC(C1)CC(c1ccc(Cl)cc1)(C3)C2 (top concentration 50000 nM) | 0.18
O=C(O)c1ccc(CN2CCC(CN[C@@H]3C[C@H]3c3ccccc3)CC2)cc1 (top concentration 100000 nM) | -0.02
COc1cc(N2CCN(C)CC2)ccc1Nc1nccc(-c2cn(C)c3cnccc23)n1 [AZ191] (top concentration 10000 nM) | -2.72
Cc1cc(Nc2nc(N[C@@H](C)c3ncc(F)cn3)ncc2Cl)[nH]n1 [AZD1480] (top concentration 1000 nM) | -4.08
COc1cc(CCc2cc(NC(=O)c3ccc(N4CC(C)NC(C)C4)cc3)n[nH]2)cc(OC)c1 (stereo not given) [AZD4547] (top concentration 1000 nM) | 0.66
CN(C)C(=O)c1ccc(S(=O)(=O)c2ccc(NC(=O)[C@@](C)(O)C(F)(F)F)c(Cl)c2)cc1 [AZD7545] (top concentration 10000 nM) | 1.6
COc1cc(C)c(/C=C/C(C)=C/C=C/C(C)=C/C(=O)O)c(C)c1C [Acitretin] (top concentration 10000 nM) | -0.9
CCC1(c2ccc(N)cc2)CCC(=O)NC1=O (stereo not given) [Aminoglutethimide] (top concentration 10000 nM) | 0
CNC(=O)c1ccc(N2C(=S)N(c3cnc(C#N)c(C(F)(F)F)c3)C(=O)C23CCC3)cc1F [Apalutamide] (top concentration 10000 nM) | 0
N#CC1(c2ccc(NC(=O)c3cccnc3NCc3ccncc3)cc2)CCCC1 [Apatinib] (top concentration 10000 nM) | 1.2
Cc1nc2cccc(N)c2c(=O)n1C1CCC(=O)NC1=O (stereo not given) [Avadomide (CC122)] (top concentration 10000 nM) | 3.5
Nc1nc(Nc2ccc3c(c2)CC[C@@H](N2CCCC2)CC3)nn1-c1cc2c(nn1)-c1ccccc1CCC2 [BGB324] (top concentration 10000 nM) | 1.52
CC1(C)C(C(=O)Nc2ccc(S(=O)(=O)c3ccc(NC(=O)C4C(C)(C)C4(C)C)cc3)cc2)C1(C)C [BRD7116] (top concentration 10000 nM) | 1.76

system: MHH-CALL-2; assay: as above; conditions: 72 h

Compound | selective drug sensitivity score
CNC(=O)c1ccc(C)c(-n2c(C)cc(OCc3ccc(F)cc3F)c(Br)c2=O)c1 (top concentration 1000 nM) | 4.9
CONC(=O)c1ccccc1Nc1cc(Nc2cc(C)nn2C(C)C)ncc1Cl (top concentration 1000 nM) | -0.94
CCOc1ccn(-c2ccc(F)cc2)c(=O)c1C(=O)Nc1ccc(Oc2ccnc(N)c2Cl)c(F)c1 (top concentration 2500 nM) | 0
CC[C@@H]1[C@H](F)C(=O)N[C@@H]1COc1nccc2cc(C(N)=O)c(OC)cc12 (top concentration 10000 nM) | -0.22
C[C@H]1C[C@@H](n2c(Nc3ccc(OC(F)(F)F)cc3)nc3cc(CCC(=O)O)ccc32)CC(C)(C)C1 (top concentration 10000 nM) | 0.96
O=C(NCc1ccncc1)C12CC3CC(C1)CC(c1ccc(Cl)cc1)(C3)C2 (top concentration 50000 nM) | 4.38
O=C(O)c1ccc(CN2CCC(CN[C@@H]3C[C@H]3c3ccccc3)CC2)cc1 (top concentration 100000 nM) | -0.02
COc1cc(N2CCN(C)CC2)ccc1Nc1nccc(-c2cn(C)c3cnccc23)n1 [AZ191] (top concentration 10000 nM) | 3.88
Cc1cc(Nc2nc(N[C@@H](C)c3ncc(F)cn3)ncc2Cl)[nH]n1 [AZD1480] (top concentration 1000 nM) | -1.38
COc1cc(CCc2cc(NC(=O)c3ccc(N4CC(C)NC(C)C4)cc3)n[nH]2)cc(OC)c1 (stereo not given) [AZD4547] (top concentration 1000 nM) | -0.14
CN(C)C(=O)c1ccc(S(=O)(=O)c2ccc(NC(=O)[C@@](C)(O)C(F)(F)F)c(Cl)c2)cc1 [AZD7545] (top concentration 10000 nM) | -0.2
COc1cc(C)c(/C=C/C(C)=C/C=C/C(C)=C/C(=O)O)c(C)c1C [Acitretin] (top concentration 10000 nM) | -0.7
CCC1(c2ccc(N)cc2)CCC(=O)NC1=O (stereo not given) [Aminoglutethimide] (top concentration 10000 nM) | 2.4
CNC(=O)c1ccc(N2C(=S)N(c3cnc(C#N)c(C(F)(F)F)c3)C(=O)C23CCC3)cc1F [Apalutamide] (top concentration 10000 nM) | 0
N#CC1(c2ccc(NC(=O)c3cccnc3NCc3ccncc3)cc2)CCCC1 [Apatinib] (top concentration 10000 nM) | 1.2
Cc1nc2cccc(N)c2c(=O)n1C1CCC(=O)NC1=O (stereo not given) [Avadomide (CC122)] (top concentration 10000 nM) | 0
Nc1nc(Nc2ccc3c(c2)CC[C@@H](N2CCCC2)CC3)nn1-c1cc2c(nn1)-c1ccccc1CCC2 [BGB324] (top concentration 10000 nM) | -1.58
CC1(C)C(C(=O)Nc2ccc(S(=O)(=O)c3ccc(NC(=O)C4C(C)(C)C4(C)C)cc3)cc2)C1(C)C [BRD7116] (top concentration 10000 nM) | 0.16
